± gives the expanded uncertainty stated by the source.
Assay: refractive index (other wavelength) (dimensionless); xn = mol fraction of the nth substance listed
Conditions: 293.15 K, 101 kPa, Liquid, Standard Abbe refractometry

CC(C)OC(C)C [diisopropyl ether] + CO
refractive index
Conditions	Wavelength=546.1 nm	Wavelength=587.6 nm	Wavelength=589.3 nm	Wavelength=632.8 nm
x2 = 0	–	1.36806 ± 0.00043	1.36801 ± 0.00043	1.36674 ± 0.00043
x2 = 0.0423	–	1.36811 ± 0.00043	1.36806 ± 0.00043	1.36678 ± 0.00043
x2 = 0.0424	–	1.36803 ± 0.00043	1.36798 ± 0.00043	1.3667 ± 0.00043
x2 = 0.082	–	1.36807 ± 0.00042	1.36802 ± 0.00042	1.36674 ± 0.00042
x2 = 0.0822	–	1.36795 ± 0.00042	1.36789 ± 0.00042	1.36663 ± 0.00042
x2 = 0.1171	–	1.36783 ± 0.00041	1.36777 ± 0.00041	1.36649 ± 0.00041
x2 = 0.1271	–	1.36784 ± 0.00041	1.36779 ± 0.00041	1.36651 ± 0.00041
x2 = 0.1827	–	1.36741 ± 0.0004	1.36736 ± 0.0004	1.36608 ± 0.0004
x2 = 0.2162	–	1.36719 ± 0.0004	1.36713 ± 0.0004	1.36585 ± 0.0004
x2 = 0.251	1.36888 ± 0.00039	1.36741 ± 0.00039	1.36735 ± 0.00039	1.36609 ± 0.00039
x2 = 0.3298	1.36792 ± 0.00038	1.36645 ± 0.00038	1.3664 ± 0.00038	1.36512 ± 0.00038
x2 = 0.3577	1.36647 ± 0.00038	1.365 ± 0.00038	1.36494 ± 0.00038	1.36367 ± 0.00038
x2 = 0.4497	1.36558 ± 0.00037	1.36412 ± 0.00037	1.36407 ± 0.00037	1.3628 ± 0.00037
x2 = 0.4525	1.36609 ± 0.00037	1.36462 ± 0.00037	1.36457 ± 0.00037	1.3633 ± 0.00037
x2 = 0.522	1.36382 ± 0.00036	1.36239 ± 0.00036	1.36233 ± 0.00036	1.36109 ± 0.00036
x2 = 0.5543	1.36357 ± 0.00035	1.36214 ± 0.00035	1.36209 ± 0.00035	1.36085 ± 0.00035
x2 = 0.609	1.3644 ± 0.00035	1.35903 ± 0.00035	1.35897 ± 0.00035	1.35774 ± 0.00035
x2 = 0.6529	1.35891 ± 0.00035	1.35751 ± 0.00034	1.35746 ± 0.00034	1.35624 ± 0.00034
x2 = 0.7504	1.35503 ± 0.00033	1.35365 ± 0.00033	1.3536 ± 0.00033	1.3524 ± 0.00033
x2 = 0.804	1.35075 ± 0.00033	1.34938 ± 0.00033	1.34933 ± 0.00033	–
x2 = 0.807	1.3506 ± 0.00033	1.34924 ± 0.00033	1.34919 ± 0.00033	–
x2 = 0.8727	1.34528 ± 0.00032	1.34394 ± 0.00032	1.34389 ± 0.00032	–
x2 = 0.9233	1.33839 ± 0.00033	1.33708 ± 0.00033	1.33703 ± 0.00033	–
x2 = 0.9253	1.34023 ± 0.00033	1.33891 ± 0.00033	1.33886 ± 0.00033	–
x2 = 0.9527	1.33705 ± 0.00032	1.33574 ± 0.00032	1.33569 ± 0.00032	–
x2 = 0.9773	1.33356 ± 0.00032	1.33228 ± 0.00032	1.33223 ± 0.00032	–
x2 = 0.989	1.33242 ± 0.00032	1.33114 ± 0.00032	1.3311 ± 0.00032	–
x2 = 0.9964	1.33098 ± 0.00031	1.3297 ± 0.00032	1.32965 ± 0.00032	–

— the NIST ThermoML archive (doi:10.1016/j.fluid.2014.09.014)
